T1: Solute carrier family 22 member 6 (Rattus norvegicus, UniProt O35956)
T1 sequence (O35956 whole entry): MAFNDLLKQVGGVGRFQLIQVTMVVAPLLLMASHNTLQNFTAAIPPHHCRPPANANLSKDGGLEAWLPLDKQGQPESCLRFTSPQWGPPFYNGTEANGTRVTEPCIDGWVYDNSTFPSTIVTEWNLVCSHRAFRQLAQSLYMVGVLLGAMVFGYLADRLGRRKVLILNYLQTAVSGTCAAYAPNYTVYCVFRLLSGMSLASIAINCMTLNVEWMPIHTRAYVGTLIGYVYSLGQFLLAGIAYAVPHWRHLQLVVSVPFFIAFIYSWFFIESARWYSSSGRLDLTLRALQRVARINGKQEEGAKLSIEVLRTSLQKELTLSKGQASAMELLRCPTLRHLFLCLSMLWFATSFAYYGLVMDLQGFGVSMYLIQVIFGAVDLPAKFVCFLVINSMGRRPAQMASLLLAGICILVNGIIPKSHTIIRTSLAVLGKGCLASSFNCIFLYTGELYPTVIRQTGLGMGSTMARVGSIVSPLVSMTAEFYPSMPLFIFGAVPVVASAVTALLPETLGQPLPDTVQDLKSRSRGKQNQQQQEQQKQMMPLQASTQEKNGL


What was measured:
[1] = biological target: T1, Solute carrier family 22 member 6; experiment: (§1) TP_TRANSPORTER: uptake in Xenopus laevis oocytes; format: functional, cell-based, Oocyte; conditions: for Activity: oocyte
[2] = biological target: T1, Solute carrier family 22 member 6; experiment: TP_TRANSPORTER: inhibition of PAH uptake (PAH: 2 uM, ACV: 1000 uM) in Xenopus laevis oocytes; format: functional, cell-based; conditions: oocyte
[3] = biological target: T1, Solute carrier family 22 member 6; experiment: TP_TRANSPORTER: inhibition of PAH uptake (PAH: 2 uM, Foscarnet: 1000 uM) in Xenopus laevis oocytes; format: functional, cell-based; conditions: oocyte
[4] = biological target: T1, Solute carrier family 22 member 6; experiment: TP_TRANSPORTER: inhibition of PAH uptake (PAH: 2 uM, Trifluridine: 1000 uM) in Xenopus laevis oocytes; format: functional, cell-based; conditions: oocyte
[5] = substrate: Nc1nc2c(ncn2COCCO)c(=O)[nH]1; experiment: as §1; format: functional, cell-based, Oocyte

Activity [1] | Molecule | further results
substrate [+] | Cc1cn([C@H]2C=C[C@@H](CO)O2)c(=O)[nH]c1=O [STAVUDINE] | –
substrate [+] | O=c1[nH]c(=O)n([C@H]2C[C@H](O)[C@@H](CO)O2)cc1C(F)(F)F [TRIFLURIDINE] | Activity [4]: inhibitor [(at a rough estimate) 50 % of control]

More lines, now with the values behind:

Molecule | Activity [1] | further results
O=c1[nH]cnc2c1ncn2[C@H]1CC[C@@H](CO)O1 [DIDANOSINE] | substrate [+] | –
Cc1cn([C@H]2C[C@H](N=[N+]=[N-])[C@@H](CO)O2)c(=O)[nH]c1=O [ZIDOVUDINE] | – | Km ([1]; Xenopus laevis oocytes): 68 µM
Nc1nc2c(ncn2COCCO)c(=O)[nH]1 [ACYCLOVIR] | – | Activity [2]: inhibitor [(at a rough estimate) 50 % of control]
Nc1ccn([C@@H]2CS[C@H](CO)O2)c(=O)n1 [LAMIVUDINE] | substrate [+] | –
Nc1ccn([C@H]2CC[C@@H](CO)O2)c(=O)n1 [ZALCITABINE] | substrate [+] | –
O=C(O)P(=O)(O)O [FOSCARNET] | is not a substrate [-] | Activity [3]: is not an inhibitor [-]
Solute carrier family 22 member 6 (Rattus norvegicus) (protein) MAFNDLLKQVGGVGRFQLIQVTMVVAPLLLMASHNTLQNFTAAIPPHHCRPPANANLSKDGGLEAWLPLDKQGQPESCLRFTSPQWGPPFYNGTEANGTRVTEPCIDGWVYDNSTFPSTIVTEWNLVCSHRAFRQLAQSLYMVGVLLGAMVFGYLADRLGRRKVLILNYLQTAVSGTCAAYAPNYTVYCVFRLLSGMSLASIAINCMTLNVEWMPIHTRAYVGTLIGYVYSLGQFLLAGIAYAVPHWRHLQLVVSVPFFIAFIYSWFFIESARWYSSSGRLDLTLRALQRVARINGKQEEGAKLSIEVLRTSLQKELTLSKGQASAMELLRCPTLRHLFLCLSMLWFATSFAYYGLVMDLQGFGVSMYLIQVIFGAVDLPAKFVCFLVINSMGRRPAQMASLLLAGICILVNGIIPKSHTIIRTSLAVLGKGCLASSFNCIFLYTGELYPTVIRQTGLGMGSTMARVGSIVSPLVSMTAEFYPSMPLFIFGAVPVVASAVTALLPETLGQPLPDTVQDLKSRSRGKQNQQQQEQQKQMMPLQASTQEKNGL | – | Km [5]: 242 µM
